Values joined by “and” are separate entries in the source; they are usually repeats but may differ in a detail not shown here. Equal values may be shown once. Read-outs that look alike come from different tables or passages of the source. Marks after values point to notes of the source that are not given here.
Columns and labels:
[1] = test system: AREc32 reporter cell line (luciferase reporter under eight copies of the rat GSTA2 ARE sequence); assay: AREc32 luciferase reporter activation; assay type: cell-based, human; details: for EC (2-fold): Homo sapiens, read-out: AREc32 EC2X (Mean ± SD)
[2] = test system: IFNγ-induced NO production in RAW 264.7 cells; assay: Nitric oxide suppression assay (IFNγ-induced NO production, Griess nitrite readout); assay type: cell-based, mouse; details: for IC50: Mus musculus
[3] = Arec32, concentration that increases the luminescence signal 2-fold above vehicle, 19 h treatment
[4] = RAW264.7, RAW 264.7 cells, 2 h pretreatment, 20 ng/mL interferon gamma 24 h, average of trials per footnote, read-out: NO IC50

| SMILES | AREc32 EC2X Relative to RTA 402 (Mean ± SD) [1] | EC (2-fold) [1, 3] [µM] | NO IC50 Rel. to RTA 402 [2] | IC50 [2, 4] [nM] | AREc32 Relative to CC in Same Experiment (Mean ± SD) ([1]; comparison compound CC4, average of ratios from three replicate experiments) | times more active (NO IC50) than 63189 relative to RTA 402 [2] | EC (2-fold) ([1]; Arec32, 19 h) [µM] | IC50 ([2]; RAW264.7, read-out: NO IC50) [nM] |
| --- | --- | --- | --- | --- | --- | --- | --- | --- |
| Cc1cc(C)n(C[C@]23CCC(C)(C)C[C@H]2[C@H]2C(=O)C=C4[C@@]5(C)C=C(C#N)C(=O)C(C)(C)[C@@H]5CC[C@@]4(C)[C@]2(C)CC3)n1 [Compound T22] | 3.7^e fold | 0.0445 | 5.29 ± 1.29^d fold | 9.18 ± 1.72 |  |  |  |  |
| CC1(C)CC[C@]2(CN3CC4(COC4)C3)CC[C@]3(C)[C@H](C(=O)C=C4[C@@]5(C)C=C(C#N)C(=O)C(C)(C)[C@@H]5CC[C@]43C)[C@@H]2C1 [Compound T23] | 1.9^e fold | 0.0185 | 2.01 ± 0.53^e fold | 4.16 ± 1.19 |  |  |  |  |
| CC1(C)CC[C@]2(N3CCCC3=O)CC[C@]3(C)[C@H](C(=O)C=C4[C@@]5(C)C=C(C#N)C(=O)C(C)(C)[C@@H]5CC[C@]43C)[C@@H]2C1 [Compound T24] | 3.8^e fold | 0.0379 | 2.17 ± 0.72^e fold | 3.6 ± 0.08 |  |  |  |  |
| CC1(C)CC[C@]2(CN3CCC3)CC[C@]3(C)[C@H](C(=O)C=C4[C@@]5(C)C=C(C#N)C(=O)C(C)(C)[C@@H]5CC[C@]43C)[C@@H]2C1 [Compound T25] | 1.5^e fold | 0.022 | 1.21 ± 0.45^e fold | 2.5 ± 0.92 |  |  |  |  |
| CC1(C)CC[C@]2(CN3CC(F)C3)CC[C@]3(C)[C@H](C(=O)C=C4[C@@]5(C)C=C(C#N)C(=O)C(C)(C)[C@@H]5CC[C@]43C)[C@@H]2C1 [Compound T26] | 1.6^e fold | 0.0236 | 2.73 ± 1.01^e fold | 5.61 ± 1.84 |  |  |  |  |
| CC1(C)CC[C@]2(CN3CC(F)(F)C3)CC[C@]3(C)[C@H](C(=O)C=C4[C@@]5(C)C=C(C#N)C(=O)C(C)(C)[C@@H]5CC[C@]43C)[C@@H]2C1 [Compound T27] | 1.8^e fold | 0.0266 | 8.68 ± 2.12^e fold | 17.8 ± 1.79 |  |  |  |  |
| CC1(C)CC[C@]2(CN3CC(O)C3)CC[C@]3(C)[C@H](C(=O)C=C4[C@@]5(C)C=C(C#N)C(=O)C(C)(C)[C@@H]5CC[C@]43C)[C@@H]2C1 [Compound T28] | 0.9 ± 0.12^a fold | 0.0139 ± 0.00157 | 1.09 ± 0.16^e fold | 2.83 ± 0.92 |  |  |  |  |
| CC1(C)CC[C@]2(CN3CC(=O)C3)CC[C@]3(C)[C@H](C(=O)C=C4[C@@]5(C)C=C(C#N)C(=O)C(C)(C)[C@@H]5CC[C@]43C)[C@@H]2C1 [Compound T29] | 1.2^e fold | 0.0133 | 1.49 ± 0.30^d fold | 6.09 ± 1.46 |  |  |  |  |
| CN1CCN([C@]23CCC(C)(C)C[C@H]2[C@H]2C(=O)C=C4[C@@]5(C)C=C(C#N)C(=O)C(C)(C)[C@@H]5CC[C@@]4(C)[C@]2(C)CC3)C1=O [Compound T31] | 4.3^e fold | 0.0455 | 3.13 ± 0.36^d fold | 12.6 ± 1.65 |  |  |  |  |
| CC1(C)CC[C@]2(n3cccn3)CC[C@]3(C)[C@H](C(=O)C=C4[C@@]5(C)C=C(C#N)C(=O)C(C)(C)[C@@H]5CC[C@]43C)[C@@H]2C1 [Compound T32] | 2.8 ± 0.62^f fold | 0.0323 ± 0.00139 | 2.58 ± 0.60^e fold | 4.89 ± 1.42 |  |  |  |  |
| CC1(C)CC[C@]2(N3CCOC3=O)CC[C@]3(C)[C@H](C(=O)C=C4[C@@]5(C)C=C(C#N)C(=O)C(C)(C)[C@@H]5CC[C@]43C)[C@@H]2C1 [Compound T34] | 2.2^e fold | 0.0236 | 1.23 ± 0.23^e fold | 2.23 ± 0.57 |  |  |  |  |
| CC1(C)CC[C@]2(N3CCC3=O)CC[C@]3(C)[C@H](C(=O)C=C4[C@@]5(C)C=C(C#N)C(=O)C(C)(C)[C@@H]5CC[C@]43C)[C@@H]2C1 [Compound T38] | 2.1^e fold | 0.0361 | 1.69 ± 0.84^e fold | 4.32 ± 3.51 |  |  |  |  |
| CC1(C)CC[C@]2(n3cnnc3)CC[C@]3(C)[C@H](C(=O)C=C4[C@@]5(C)C=C(C#N)C(=O)C(C)(C)[C@@H]5CC[C@]43C)[C@@H]2C1 [Compound T39] | 9.8 ± 1.1^a fold | 0.0943 ± 0.00426 | 42.82 ± 14.24^e fold | 84.5 ± 18.9 |  |  |  |  |
| CC1(C)CC[C@]2(n3ccoc3=O)CC[C@]3(C)[C@H](C(=O)C=C4[C@@]5(C)C=C(C#N)C(=O)C(C)(C)[C@@H]5CC[C@]43C)[C@@H]2C1 [Compound T40] | 1.8^e fold | 0.0196 | 1.37 ± 0.18^d fold | 5.56 ± 0.72 |  |  |  |  |
| CC1(C)CC[C@]2(n3cc(CO)nn3)CC[C@]3(C)[C@H](C(=O)C=C4[C@@]5(C)C=C(C#N)C(=O)C(C)(C)[C@@H]5CC[C@]43C)[C@@H]2C1 [Compound T42] | 1.3 ± 0.34^f fold | 0.0148 ± 0.00277 | 2.97 ± 0.47^d fold | 12.4 ± 3.92 | 0.490 ± 0.057 |  |  |  |
| Cn1ccn([C@]23CCC(C)(C)C[C@H]2[C@H]2C(=O)C=C4[C@@]5(C)C=C(C#N)C(=O)C(C)(C)[C@@H]5CC[C@@]4(C)[C@]2(C)CC3)c1=O [Compound T46] | 3.0^e fold | 0.0316 | 2.62 ± 0.10^d fold | 10.7 ± 1.35 |  |  |  |  |
| CC1(C)CC[C@]2(CN3CCOC3)CC[C@]3(C)[C@H](C(=O)C=C4[C@@]5(C)C=C(C#N)C(=O)C(C)(C)[C@@H]5CC[C@]43C)[C@@H]2C1 [Compound T47] | 8.6^e fold | 0.122 | 7.54 ± 2.47^d fold | 17.3 ± 8.55 |  |  |  |  |
| CC1(C)CC[C@]2(Cn3cnnc3)CC[C@]3(C)[C@H](C(=O)C=C4[C@@]5(C)C=C(C#N)C(=O)C(C)(C)[C@@H]5CC[C@]43C)[C@@H]2C1 [Compound T49] | 4.5^e fold | 0.0389 | 13.72 ± 3.47^e fold | 26.9 ± 10.5 |  |  |  |  |
| CC1(C)CC[C@]2(CN3NCCC3=O)CC[C@]3(C)[C@H](C(=O)C=C4[C@@]5(C)C=C(C#N)C(=O)C(C)(C)[C@@H]5CC[C@]43C)[C@@H]2C1 [Compound T51] | 1.1^e fold | 0.0117 | 2.04 ± 0.73^d fold | 8.55 ± 3.65 |  |  |  |  |
| [2H]C([2H])([2H])C(=O)NC[C@]12CCC(C)(C)C[C@H]1[C@H]1C(=O)C=C3[C@@]4(C)C=C(C#N)C(=O)C(C)(C)[C@@H]4CC[C@@]3(C)[C@]1(C)CC2 [Compound T52] | 0.3^e fold | 0.003 | 0.28 ± 0.13^e fold | 0.52 ± 0.24 |  |  |  |  |
| CCC(=O)NC[C@]12CCC(C)(C)C[C@H]1[C@H]1C(=O)C=C3[C@@]4(C)C=C(C#N)C(=O)C(C)(C)[C@@H]4CC[C@@]3(C)[C@]1(C)CC2 [Compound T53] | 0.2^e fold | 0.0024 | 0.21 fold and 0.21 ± 0.05^e fold | 0.38 |  | more than 19 times |  |  |
| CC1(C)CC[C@]2(NNC(=O)C(F)(F)F)CC[C@]3(C)[C@H](C(=O)C=C4[C@@]5(C)C=C(C#N)C(=O)C(C)(C)[C@@H]5CC[C@]43C)[C@@H]2C1 [Compound T56] | 1.5^e fold | 0.0155 | 1.70 ± 0.32^d fold | 7.04 ± 1.91 |  |  |  |  |
| CC1(C)CC[C@]2(N3CCC(=O)N3)CC[C@]3(C)[C@H](C(=O)C=C4[C@@]5(C)C=C(C#N)C(=O)C(C)(C)[C@@H]5CC[C@]43C)[C@@H]2C1 [Compound T58] | 5.3^e fold | 0.0565 | 2.97 ± 0.65^d fold | 12.2 ± 3.32 |  |  |  |  |
| CC1(C)CC[C@]2(CNC(=O)C(C)(F)F)CC[C@]3(C)[C@H](C(=O)C=C4[C@@]5(C)C=C(C#N)C(=O)C(C)(C)[C@@H]5CC[C@]43C)[C@@H]2C1 [Compound T62] | 0.3^e fold | 0.0035 | 0.51 ± 0.18^d fold | 2.12 ± 0.85 |  |  |  |  |
| CC1(C)CC[C@]2(CNC(=O)C(F)F)CC[C@]3(C)[C@H](C(=O)C=C4[C@@]5(C)C=C(C#N)C(=O)C(C)(C)[C@@H]5CC[C@]43C)[C@@H]2C1 [Compound T63] | 0.4^e fold | 0.004 | 0.36 ± 0.11^d fold | 1.48 ± 0.54 |  |  |  |  |
| C[C@@H]1C(=O)C(C#N)=C[C@]2(C)C3=CC(=O)[C@@H]4[C@@H]5CC(C)(C)CC[C@]5(CN5CCC5=O)CC[C@@]4(C)[C@]3(C)CC[C@@H]12 [Compound T65] | 0.4^e fold | 0.0047 | 0.36 ± 0.12^e fold | 0.42 ± 0.13 |  |  |  |  |
| C[C@@H]1C(=O)C(C#N)=C[C@]2(C)C3=CC(=O)[C@@H]4[C@@H]5CC(C)(C)CC[C@]5(CN5CCCC5=O)CC[C@@]4(C)[C@]3(C)CC[C@@H]12 [Compound T66] | 0.4^e fold | 0.0046 | 0.39 ± 0.09^e fold | 0.45 ± 0.09 |  |  |  |  |
| CC1(C)CC[C@]2(CNC(=O)CF)CC[C@]3(C)[C@H](C(=O)C=C4[C@@]5(C)C=C(C#N)C(=O)C(C)(C)[C@@H]5CC[C@]43C)[C@@H]2C1 [Compound T67] | 0.3^e fold |  | 0.38 ± 0.15^d fold |  |  |  | 0.0033 | 0.51 ± 0.31 |

Source: US20230111914A1, “SYNTHETIC TRITERPENOIDS WITH NITROGEN-BASED SUBSTITUENTS AT C-17 AND METHODS OF USE THEREOF” (REATA PHARMACEUTICALS, INC., priority 2019, published 2023)
